Entries after “also recorded” stand apart in the source; their conditions may differ.
Experiments:
L3MBTL3 [1] = molecular target: T1, L3MBTL3 (Homo sapiens, UniProt Q96JM7); assay: AlphaScreen histone peptide competition, L3MBTL3; format: binding; conditions: average of at least two independent trials ± SD
T1 sequence (Q96JM7 225-555 limits assumed): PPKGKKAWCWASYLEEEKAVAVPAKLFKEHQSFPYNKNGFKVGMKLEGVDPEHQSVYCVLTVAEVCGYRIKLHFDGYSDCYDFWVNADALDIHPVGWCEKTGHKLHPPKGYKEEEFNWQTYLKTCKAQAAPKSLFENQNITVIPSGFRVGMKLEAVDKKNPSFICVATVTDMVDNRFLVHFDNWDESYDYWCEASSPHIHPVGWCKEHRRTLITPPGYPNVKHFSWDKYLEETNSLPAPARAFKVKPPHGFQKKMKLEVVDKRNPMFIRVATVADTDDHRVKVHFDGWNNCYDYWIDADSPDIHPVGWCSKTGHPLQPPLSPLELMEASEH

PHF13 = molecular target: T2, PHF13 (Homo sapiens, UniProt Q86YI8); assay: AlphaScreen histone peptide competition, PHF13; format: binding; conditions: average of at least two independent trials ± SD
T2 sequence (Q86YI8 232-280 limits assumed): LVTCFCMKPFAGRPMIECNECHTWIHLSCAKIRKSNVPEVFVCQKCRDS

L3MBTL3 [2] = molecular target: T1, L3MBTL3; assay: ITC binding to L3MBTL3; conditions: data not shown
L3MBTL1 [3] = molecular target: T3, L3MBTL1 (Homo sapiens, UniProt Q9Y468); assay: AlphaScreen histone peptide competition, L3MBTL1; conditions: sulfonamide series; footnote a of Table 2: no binding by AlphaScreen
T3 sequence (Q9Y468 200-522 isoform Q9Y468-1 limits assumed): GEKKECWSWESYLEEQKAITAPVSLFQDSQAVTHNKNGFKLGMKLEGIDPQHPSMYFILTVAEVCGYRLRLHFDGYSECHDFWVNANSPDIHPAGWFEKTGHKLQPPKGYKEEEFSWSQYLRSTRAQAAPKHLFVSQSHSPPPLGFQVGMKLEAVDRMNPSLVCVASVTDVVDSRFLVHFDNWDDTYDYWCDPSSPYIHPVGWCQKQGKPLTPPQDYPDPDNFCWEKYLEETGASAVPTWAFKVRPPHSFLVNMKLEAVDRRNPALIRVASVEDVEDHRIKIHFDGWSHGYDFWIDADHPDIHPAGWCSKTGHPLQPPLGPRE

L3MBTL1 [4] = molecular target: T3, L3MBTL1; assay: ITC binding to wt L3MBTL1; conditions: single experiments, standard deviations from least square curve fitting

O=C(NCCCCCN1CCCC1)c1cncc(Br)c1 [Compound 7]
L3MBTL3 IC50 (L3MBTL3 [1]): weak binding
PHF13 IC50 (PHF13): weak binding
Binding to L3MBTL3 by ITC (L3MBTL3 [2]): Binding was confirmed

O=S(=O)(NCCCCCN1CCOCC1)c1cccc(Br)c1 [Compound 9]
Binding by AlphaScreen (L3MBTL1 [3]): did not show any activity; also recorded: No Binding ^a

O=S(=O)(NCCOCCN1CCCC1)c1cccc(Br)c1 [Compound 8]
Binding by AlphaScreen (L3MBTL1 [3]): did not show any activity; also recorded: No Binding ^a

C[C@H]1CCN(CCCCCNS(=O)(=O)c2cccc(Br)c2)C1 [Compound 12]
3MBTL1 Kd (L3MBTL1 [4]): No Binding Interaction

From paper PMC3109722 (Journal of medicinal chemistry, 2011)
